# Data: the supplement of paper PMC4932681
# Key:
# MCF-7 Tam1 [1] = assay: drug sensitivity score (DSS) (DSS (dimensionless)); higher = more sensitive; extreme values may be limits of the assay; conditions: 4-OH-tamoxifen in medium 1 µM; 72 h
# Method in brief: (§1)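 Breast cancer cell lines and their resistant derivatives were seeded into 384-well plates holding FO2Baq library drugs at five concentrations spanning a 10 000-fold range. Resistant lines were in medium with 1 μM of the selecting drug. Cells were incubated 72 h at 37 °C, and CellTiter-Glo viability was read on a PHERAstar and normalised to vehicle-only and positive controls. Drug sensitivity score, relative IC50 (curve midpoint) and top-dose inhibition came from logistic dose–response fits (Breeze pipeline).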
# MCF-7 [2] = assay: as above; conditions: 72 h
# Method in brief: as §1
# ZR-75-1 Tam1 [3] = assay: as above; conditions: 4-OH-tamoxifen in medium 1 µM; 72 h
# Method in brief: as §1
# T-47D Tam1 [4] = assay: as above; conditions: 4-OH-tamoxifen in medium 1 µM; 72 h
# Method in brief: as §1
# T-47D [5] = assay: as above; conditions: 72 h
# Method in brief: as §1
# ZR-75-1 Tam2 [6] = assay: as above; conditions: 4-OH-tamoxifen in medium 1 µM; 72 h
# Method in brief: as §1
# BT-474 Tam2 [7] = assay: as above; conditions: 4-OH-tamoxifen in medium 1 µM; 72 h
# Method in brief: as §1
# T-47D Tam2 [8] = assay: as above; conditions: 4-OH-tamoxifen in medium 1 µM; 72 h
# Method in brief: as §1
# ZR-75-1 [9] = assay: as above; conditions: 72 h
# Method in brief: as §1
# BT-474 [10] = assay: as above; conditions: 72 h
# Method in brief: as §1
# BT-474 Tam1 [11] = assay: as above; conditions: 4-OH-tamoxifen in medium 1 µM; 72 h
# Method in brief: as §1
# MCF-7 Tam1 [12] = assay: relative IC50 (midpoint of fitted logistic curve, plateau may be below 50% inhibition; CellTiter-Glo viability); higher = less potent; conditions: 4-OH-tamoxifen in medium 1 µM; 72 h
# Method in brief: as §1
# MCF-7 [13] = assay: as above; conditions: 72 h
# Method in brief: as §1
# ZR-75-1 Tam1 [14] = assay: as above; conditions: 4-OH-tamoxifen in medium 1 µM; 72 h
# Method in brief: as §1
# T-47D Tam1 [15] = assay: as above; conditions: 4-OH-tamoxifen in medium 1 µM; 72 h
# Method in brief: as §1
# T-47D [16] = assay: as above; conditions: 72 h
# Method in brief: as §1
# ZR-75-1 Tam2 [17] = assay: as above; conditions: 4-OH-tamoxifen in medium 1 µM; 72 h
# Method in brief: as §1
# BT-474 Tam2 [18] = assay: as above; conditions: 4-OH-tamoxifen in medium 1 µM; 72 h
# Method in brief: as §1
# T-47D Tam2 [19] = assay: as above; conditions: 4-OH-tamoxifen in medium 1 µM; 72 h
# Method in brief: as §1
# ZR-75-1 [20] = assay: as above; conditions: 72 h
# Method in brief: as §1
# BT-474 [21] = assay: as above; conditions: 72 h
# Method in brief: as §1
# BT-474 Tam1 [22] = assay: as above; conditions: 4-OH-tamoxifen in medium 1 µM; 72 h
# Method in brief: as §1
Structure (SMILES),drug sensitivity score (MCF-7 Tam1 [1]),drug sensitivity score (MCF-7 [2]; 4-OH-tamoxifen in medium 0 µM),drug sensitivity score (MCF-7 [2]; 4-OH-tamoxifen in medium 1 µM),drug sensitivity score (ZR-75-1 Tam1 [3]),drug sensitivity score (T-47D Tam1 [4]),drug sensitivity score (T-47D [5]; 4-OH-tamoxifen in medium 0 µM),drug sensitivity score (T-47D [5]; 4-OH-tamoxifen in medium 1 µM),drug sensitivity score (ZR-75-1 Tam2 [6]),drug sensitivity score (BT-474 Tam2 [7]),drug sensitivity score (T-47D Tam2 [8]),drug sensitivity score (ZR-75-1 [9]; 4-OH-tamoxifen in medium 0 µM),drug sensitivity score (ZR-75-1 [9]; 4-OH-tamoxifen in medium 1 µM),drug sensitivity score (BT-474 [10]; 4-OH-tamoxifen in medium 0 µM),drug sensitivity score (BT-474 [10]; 4-OH-tamoxifen in medium 1 µM),drug sensitivity score (BT-474 Tam1 [11]),relative IC50 (MCF-7 Tam1 [12]) [µM],relative IC50 (MCF-7 [13]; 4-OH-tamoxifen in medium 0 µM) [µM],relative IC50 (MCF-7 [13]; 4-OH-tamoxifen in medium 1 µM) [µM],relative IC50 (ZR-75-1 Tam1 [14]) [µM],relative IC50 (T-47D Tam1 [15]) [µM],relative IC50 (T-47D [16]; 4-OH-tamoxifen in medium 0 µM) [µM],relative IC50 (T-47D [16]; 4-OH-tamoxifen in medium 1 µM) [µM],relative IC50 (ZR-75-1 Tam2 [17]) [µM],relative IC50 (BT-474 Tam2 [18]) [µM],relative IC50 (T-47D Tam2 [19]) [µM],relative IC50 (ZR-75-1 [20]; 4-OH-tamoxifen in medium 0 µM) [µM],relative IC50 (ZR-75-1 [20]; 4-OH-tamoxifen in medium 1 µM) [µM],relative IC50 (BT-474 [21]; 4-OH-tamoxifen in medium 0 µM) [µM],relative IC50 (BT-474 [21]; 4-OH-tamoxifen in medium 1 µM) [µM],relative IC50 (BT-474 Tam1 [22]) [µM]
C[C@]12CC[C@@H]3c4ccc(OC(=O)N(CCCl)CCCl)cc4CC[C@H]3[C@@H]1CC[C@@H]2O [Estramustine],0,0,0,0,0,0,0,0,0,0,0,0,0,0,0,> 990,> 990,> 990,> 990,> 990,> 990,> 990,> 990,> 990,> 990,> 990,> 990,> 990,> 990,> 990
CC(=O)[C@]1(O)Cc2c(O)c3c(c(O)c2[C@@H](O[C@H]2C[C@H](N)[C@H](O)[C@H](C)O2)C1)C(=O)c1ccccc1C3=O [Idarubicin],1.86,6.65,5.56,5.45,8.94,8.26,3.11,7.63,3.03,2.4,6.29,5.81,4.38,4.91,3.94,0.331,0.191,0.187,0.127,0.123,0.0974,0.329,0.086,0.371,0.313,0.12,0.111,0.309,0.349,0.394
CO[C@H]1/C=C\C=C(/C)C(=O)NC2=CC(=O)C(NCCN(C)C)=C(C[C@@H](C)C[C@H](OC)[C@H](O)[C@@H](C)/C=C(\C)[C@@H]1OC(N)=O)C2=O [Alvespimycin (17-DMAG)],4.36,12.6,8.71,3.49,1.14,3.17,3.41,5.93,17.6,3.87,3.36,6.21,12.2,19.4,16.9,0.048,0.0225,0.03,0.095,0.424,0.259,0.142,0.071,0.0146,0.196,0.0858,0.0752,0.0131,0.00888,0.0153
O=C1CN2Cc3c(ccc(Cl)c3Cl)N=C2N1 [Anagrelide],0,0,0,0,0,0,0,0,0,0,0,0,0,0,0,> 10,> 10,> 10,> 10,> 10,> 10,> 10,> 10,> 10,> 10,> 10,> 10,> 10,> 10,> 10
COc1ccc(-c2ccc3c(N4CCOC[C@@H]4C)nc(N4CCOC[C@@H]4C)nc3n2)cc1CO [AZD8055],6.06,20.2,11.5,16.2,17.1,16.7,8.08,19.8,8.38,10.2,18.4,17.4,11.8,13.6,12.7,0.147,0.0484,0.13,0.0389,0.0399,0.0611,0.423,0.0185,0.399,0.227,0.0313,0.0123,0.0607,0.267,0.378
CN1CCN(c2ccc3nc(-c4c(N)c5c(F)cccc5[nH]c4=O)[nH]c3c2)CC1 [Dovitinib (CHIR-258)],0,0,0,0,0,0,0,0,0,0,0,0,0,0,0,> 10,> 10,> 10,> 10,> 10,> 10,> 10,> 10,> 10,> 10,> 10,> 10,> 10,> 10,> 10
COC1=C2C[C@@H](C)C[C@H](OC)[C@H](O)[C@@H](C)/C=C(\C)[C@H](OC(N)=O)[C@@H](OC)/C=C\C=C(/C)C(=O)NC(=CC1=O)C2=O [Geldanamycin],4.81,5.35,9.55,7.66,14.8,4.34,3.67,6.52,12.9,6.85,6.31,9.2,9.69,10.8,8.85,1.91,2.79,0.943,1.12,0.235,2.95,3.59,1.44,0.494,1.34,1.34,1.07,0.563,0.518,1.25
